The target of this assay is T1, Human GPR120 short form (Homo sapiens, UniProt Q5NUL3).
T1 construct: expressed in transfected cells
T1 sequence (Q5NUL3 1-361): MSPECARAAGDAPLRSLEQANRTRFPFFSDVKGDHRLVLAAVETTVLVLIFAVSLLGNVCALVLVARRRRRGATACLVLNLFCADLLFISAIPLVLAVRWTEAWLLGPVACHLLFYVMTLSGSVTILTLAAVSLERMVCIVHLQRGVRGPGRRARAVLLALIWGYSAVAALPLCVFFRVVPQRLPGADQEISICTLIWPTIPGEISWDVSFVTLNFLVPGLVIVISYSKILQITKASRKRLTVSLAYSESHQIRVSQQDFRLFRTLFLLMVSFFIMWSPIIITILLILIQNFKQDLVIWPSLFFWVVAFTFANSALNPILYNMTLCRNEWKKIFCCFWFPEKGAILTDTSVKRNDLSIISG
The assay is described as follows: Human GPR120 calcium flux assay (FLIPR), Procedure Calcium A. Format: cell-based. The settings on record: HEK-293 cells expressing human GPR120 short form, 2500 cells/well; read-out: GPR120 Ca2+ Assay A EC50. A digest of the protocol: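 HEK293 cells stably expressing the short isoform (NM_001195755.1), 2500/well, starved 1 h, then loaded with Fluo-4 NW plus probenecid (30 min 37 °C, 15 min RT). Compound solutions 0.012–100 μM, 0.2% DMSO final; FLIPR read 300 s after addition. EC50 from Fmax−Fmin fitted to variable-slope sigmoid (Hill <2).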
(In general: Calcium assays in cells follow changes in intracellular calcium, usually with a dye or a luminescent sensor.)
For “3-(4-[[3-(4-chlorophenyl)-5-(trifluoromethyl)-1,2-thiazol-4-yl]methoxy]-3-methylphenyl)propanoic acid [Cpd 235]”, the EC50 (as a rule, the concentration that produces a half-maximal response) was found to be 50 nM.

For the compound “3-(4-[[3-(4-ethylphenyl)-5-(trifluoromethyl)-1,2-thiazol-4-yl]methoxy]-1-benzothiophen-7-yl)propanoic acid [Cpd 92]”, the EC50 was determined as 50 nM. For “3-(4-[[3-(4-ethylphenyl)-5-(trifluoromethyl)-1,2-thiazol-4-yl]methoxy]-3,5-difluorophenyl)propanoic acid [Cpd 70]” the value was 30 nM; for `CCc1ccc(-c2cc(F)sc2COc2ccc(CCC(=O)O)c(C)c2C)cc1` [Cpd 1, 3-(4-[[3-(4-ethylphenyl)-5-fluorothiophen-2-yl]methoxy]-2,3-dimethylphenyl)propanoic acid], 24 nM; for `Cc1c(CCC(=O)O)ccc(OCc2sc(F)cc2-c2ccc(Cl)cc2)c1C` [Cpd 3, 3-(4-((3-(4-chlorophenyl)-5-fluorothiophen-2-yl)methoxy)-2,3-dimethylphenyl)propanoic acid], 49 nM. For `OCCCc1cc(F)c(OCc2c(-c3ccc4c(c3)OCO4)csc2C(F)(F)F)c(F)c1` [Cpd 37, 3-(4-((4-(benzo[d][1,3]dioxol-5-yl)-2-(trifluoromethyl)thiophen-3-yl)methoxy)-3,5-difluorophenyl)propan-1-ol] the value was 94 nM; for `Cc1ccc(-c2nsc(C(F)(F)F)c2COc2c(F)cc(CCC(=O)O)cc2F)c(F)c1` [Cpd 65, 3-(3,5-difluoro-4-[[3-(2-fluoro-4-methylphenyl)-5-(trifluoromethyl)-1,2-thiazol-4-yl]methoxy]phenyl)propanoic acid], 13 nM; for `O=C(O)CCc1cc(F)c(OCc2c(-c3ccc(Cl)c(F)c3)nsc2C(F)(F)F)c(F)c1` [Cpd 67, 3-(4-((3-(4-chloro-3-fluorophenyl)-5-(trifluoromethyl)isothiazol-4-yl)methoxy)-3,5-difluorophenyl)propanoic acid], 25 nM. In the case of `O=C(O)CCc1cc(F)c(OCc2c(C3CCCC3)nsc2C(F)(F)F)c(F)c1` [Cpd 71, 3-(4-[[3-cyclopentyl-5-(trifluoromethyl)-1,2-thiazol-4-yl]methoxy]-3,5-difluorophenyl)propanoic acid] it was 37 nM; in that of `CCc1ccc(-c2nsc(C(F)(F)F)c2COc2ccc(CCC(=O)O)c(F)c2F)cc1` [Cpd 73, 3-(4-((3-(4-ethylphenyl)-5-(trifluoromethyl)isothiazol-4-yl)methoxy)-2,3-difluorophenyl)propanoic acid], 41 nM; in that of `O=C(O)CCc1cc(F)c(OCc2c(-c3ccc(Cl)cc3F)nsc2C(F)(F)F)c(F)c1` [Cpd 74, 3-(4-((3-(4-chloro-2-fluorophenyl)-5-(trifluoromethyl)isothiazol-4-yl)methoxy)-3,5-difluorophenyl)propanoic acid], 42 nM. Consider `Cc1ccc(-c2nsc(C(F)(F)F)c2COc2c(F)cc(CC(C)C(=O)O)cc2F)c(F)c1` (stereo not shown) [Cpd 76, 3-(3,5-difluoro-4-[[3-(2-fluoro-4-methylphenyl)-5-(trifluoromethyl)-1,2-thiazol-4-yl]methoxy]phenyl)-2-methylpropanoic acid], for which the concentration giving a half-maximal response (EC50) stood at 42 nM. For `O=C(O)CCc1cc(F)c(OCc2c(-c3ccc(Cl)cc3)nsc2C(F)(F)F)c(F)c1` [Cpd 79, 3-(4-[[3-(4-chlorophenyl)-5-(trifluoromethyl)-1,2-thiazol-4-yl]methoxy]-3,5-difluorophenyl)propanoic acid] the value was 51 nM; for `CCc1ccc(-c2snc(Cl)c2COc2ccc(CCC(=O)O)c(C)c2C)cc1` [Cpd 85, 3-(4-[[3-chloro-5-(4-ethylphenyl)-1,2-thiazol-4-yl]methoxy]-2,3-dimethylphenyl)propanoic acid], 56 nM. For `OCCCc1cc(F)c(OCc2c(-c3ccc4c(c3)OCO4)nsc2C(F)(F)F)c(F)c1` [Cpd 93, 3-(4-[[3-(2H-1,3-benzodioxol-5-yl)-5-(trifluoromethyl)-1,2-thiazol-4-yl]methoxy]-3,5-difluorophenyl)propan-1-ol] the value was 71 nM; for `OCCCc1cc(F)c(OCc2c(-c3ccc(Cl)cc3)nsc2C(F)(F)F)c(F)c1` [Cpd 100, 3-(4-[[3-(4-chlorophenyl)-5-(trifluoromethyl)-1,2-thiazol-4-yl]methoxy]-3,5-difluorophenyl)propan-1-ol], 76 nM; for `OCCCc1ccc(OCc2c(Cl)nsc2-c2ccc(Cl)cc2)c(F)c1F` [Cpd 102, 3-(4-((3-chloro-5-(4-chlorophenyl)isothiazol-4-yl)methoxy)-2,3-difluorophenyl)propan-1-ol], 78 nM. For `CC(Cc1cc(F)c(OCc2c(-c3ccc(Cl)cc3)nsc2C(F)(F)F)c(F)c1)C(=O)O` (stereo not shown) [Cpd 108, 3-(4-[[3-(4-chlorophenyl)-5-(trifluoromethyl)-1,2-thiazol-4-yl]methoxy]-3,5-difluorophenyl)-2-methylpropanoic acid] the value was 89 nM; for `O=C(O)CCc1cc(F)c(OCc2c(-c3ccc(Cl)cc3)nsc2C(F)(F)F)c(F)c1F` [Cpd 116, 3-(4-((3-(4-chlorophenyl)-5-(trifluoromethyl)isothiazol-4-yl)methoxy)-2,3,5-trifluorophenyl)propanoic acid], 104 nM.

`Cc1c(CCC(=O)O)ccc(OCc2c(-c3ccccc3)nsc2C(F)(F)F)c1C` [Cpd 134, 3-(2,3-dimethyl-4-[[3-phenyl-5-(trifluoromethyl)-1,2-thiazol-4-yl]methoxy]phenyl)propanoic acid]: the EC50 is 133 nM.

On to `O=C(O)CCc1cc(F)c(OCc2c(-c3ccc(Cl)c(F)c3)nsc2C(F)(F)F)c(F)c1F` [Cpd 138, 3-(4-((3-(4-chloro-3-fluorophenyl)-5-(trifluoromethyl)isothiazol-4-yl)methoxy)-2,3,5-trifluorophenyl)propanoic acid], for which the EC50 came out at 137 nM. As for `Cc1c(CCC(=O)O)ccc(OCc2c(-c3ccc(Cl)cc3)nsc2C(F)(F)F)c1C` [Cpd 142, 3-(4-((3-(4-chlorophenyl)-5-(trifluoromethyl)isothiazol-4-yl)methoxy)-2,3-dimethylphenyl)propanoic acid], the EC50 stood at 155 nM. For `O=C(O)CCc1c(F)c(F)c(OCc2c(-c3ccc(Cl)cc3)nsc2C(F)(F)F)c(F)c1F` [Cpd 152, 3-(4-((3-(4-chlorophenyl)-5-(trifluoromethyl)isothiazol-4-yl)methoxy)-2,3,5,6-tetrafluorophenyl)propanoic acid] the value was 173 nM. In the case of `O=C(O)CCc1cc(F)c(OCc2c(-c3ncc(Cl)cc3F)nsc2C(F)(F)F)c(F)c1` [Cpd 153, 3-(4-((3-(5-chloro-3-fluoropyridin-2-yl)-5-(trifluoromethyl)isothiazol-4-yl)methoxy)-3,5-difluorophenyl)propanoic acid] it was 175 nM; in that of `CCc1cc(CCC(=O)O)ccc1OCc1c(-c2ccc(Cl)cc2)nsc1C(F)(F)F` [Cpd 162, 3-(4-[[3-(4-chlorophenyl)-5-(trifluoromethyl)-1,2-thiazol-4-yl]methoxy]-3-ethylphenyl)propanoic acid], 202 nM; in that of `Cc1c(CCC(=O)O)ccc(OCc2c(-c3ncc(Cl)cc3F)nsc2C(F)(F)F)c1C` [Cpd 180, 3-(4-((3-(5-chloro-3-fluoropyridin-2-yl)-5-(trifluoromethyl)isothiazol-4-yl)methoxy)-2,3-dimethylphenyl)propanoic acid], 270 nM. For `Cc1ccccc1-c1snc(Cl)c1COc1c(F)cc(CCC(=O)O)cc1F` [Cpd 193, 3-(4-[[3-chloro-5-(2-methylphenyl)-1,2-thiazol-4-yl]methoxy]-3,5-difluorophenyl)propanoic acid] the value was 344 nM; for `OCC#Cc1cc(F)c(OCc2c(-c3ccc(Cl)cc3)nsc2C(F)(F)F)c(F)c1` [Cpd 213, 3-(4-[[3-(4-chlorophenyl)-5-(trifluoromethyl)-1,2-thiazol-4-yl]methoxy]-3,5-difluorophenyl)prop-2-yn-1-ol], 603 nM.

Source of the values: US9067898B1, “Isothiazole derivatives as GPR120 agonists for the treatment of type II diabetes” (Janssen Pharmaceutica NV, priority 2014, dated 2015).
